Common to all, as to assay type: functional
Assay [1] deals with Escherichia coli. The experiment in a line: Antimicrobial activity against Escherichia coli MTCC 3261 at 20 ug after 24 hr by streak plate method. The note with it: MTCC 3261, 24 h, read-out: IZ.
In assay [2] the test system is Salmonella typhi. The experiment in a line: Antimicrobial activity against Salmonella enterica subsp. enterica serovar Typhi MTCC 3917 at 20 ug after 24 hr by streak plate method. The note with it: MTCC 3917, 24 h, read-out: IZ.
Assay [3] has as its system Escherichia coli. The experiment in a line: Antimicrobial activity against Escherichia coli MTCC 3261 at 60 ug after 24 hr by streak plate method. As to conditions: MTCC 3261, 24 h, read-out: IZ.
Assay [4] has as its system Bacillus subtilis. The assay is described as follows: Antimicrobial activity against Bacillus subtilis MTCC 4905 at 40 ug after 24 hr by streak plate method. As to conditions: MTCC 4905, 24 h, read-out: IZ.
Assay [5] has as its system Salmonella typhi. The experiment in a line: Antimicrobial activity against Salmonella enterica subsp. enterica serovar Typhi MTCC 3917 at 40 ug after 24 hr by streak plate method. As to conditions: MTCC 3917, 24 h, read-out: IZ.
In assay [6] the test system is Bacillus subtilis. The assay is described as follows: Antimicrobial activity against Bacillus subtilis MTCC 4905 at 20 ug after 24 hr by streak plate method. As to conditions: MTCC 4905, 24 h, read-out: IZ.
In assay [7] the test system is Bacillus subtilis. The experiment in a line: Antimicrobial activity against Bacillus subtilis MTCC 4905 at 60 ug after 24 hr by streak plate method. The note with it: MTCC 4905, 24 h, read-out: IZ.
In assay [8] the test system is Escherichia coli. The assay is described as follows: Antimicrobial activity against Escherichia coli MTCC 3261 at 40 ug after 24 hr by streak plate method. As to conditions: MTCC 3261, 24 h, read-out: IZ.
Assay [9] relates to Salmonella typhi. The assay is described as follows: Antimicrobial activity against Salmonella enterica subsp. enterica serovar Typhi MTCC 3917 at 60 ug after 24 hr by streak plate method. As to conditions: MTCC 3917, 24 h, read-out: IZ.
In assay [10] the test system is Aspergillus oryzae. The experiment in a line: Antimicrobial activity against Aspergillus oryzae MTCC 3782 at 40 ug after 48 hr by streak plate method. The note with it: MTCC 3782, 48 h, read-out: IZ.
Assay [11] relates to Radical scavenging activity. The experiment in a line: Antioxidant activity assessed as DPPH radical scavenging activity at 75 ug. On the technique in general: DPPH is a stable violet radical that fades when it is reduced.
Assay [12] has as its system Aspergillus fumigatus. The experiment in a line: Antimicrobial activity against Aspergillus fumigatus MTCC 6594 at 60 ug after 48 hr by streak plate method. As to conditions: MTCC 6594, 48 h, read-out: IZ.
Assay [13] deals with Aspergillus fumigatus. The experiment in a line: Antimicrobial activity against Aspergillus fumigatus MTCC 6594 at 40 ug after 48 hr by streak plate method. As to conditions: MTCC 6594, 48 h, read-out: IZ.
The test system of assay [14] is Radical scavenging activity. The assay is described as follows: Antioxidant activity assessed as DPPH radical scavenging activity at 100 ug.
A short description of assay [15]: Antioxidant activity assessed as inhibition of linoleic acid peroxidation at 25 ug by FTC method.
Assay [16] concerns Radical scavenging activity. The experiment in a line: Antioxidant activity assessed as DPPH radical scavenging activity at 125 ug.
Assay [17] has as its system Radical scavenging activity. The assay is described as follows: Antioxidant activity assessed as DPPH radical scavenging activity at 50 ug.
Assay [18] deals with Radical scavenging activity. The experiment in a line: Antioxidant activity assessed as DPPH radical scavenging activity at 25 ug.
A short description of assay [19]: Antioxidant activity assessed as inhibition of linoleic acid peroxidation by FTC method.
For assay [20], the system named is Radical scavenging activity. The experiment in a line: Antioxidant activity assessed as DPPH radical scavenging activity.
Assay [21] is described as follows: Antioxidant activity assessed as inhibition of linoleic acid peroxidation at 75 ug by FTC method.
Assay [22] has as its system Aspergillus oryzae. The assay is described as follows: Antimicrobial activity against Aspergillus oryzae MTCC 3782 at 60 ug after 48 hr by streak plate method. The note with it: MTCC 3782, 48 h, read-out: IZ.
Assay [23] can be described thus: Antioxidant activity assessed as inhibition of linoleic acid peroxidation at 125 ug by FTC method.
Assay [24] is described as follows: Antioxidant activity assessed as inhibition of linoleic acid peroxidation at 100 ug by FTC method.
Assay [25] can be described thus: Antioxidant activity assessed as inhibition of linoleic acid peroxidation at 50 ug by FTC method.
The test system of assay [26] is Aspergillus fumigatus. The experiment in a line: Antimicrobial activity against Aspergillus fumigatus MTCC 6594 at 20 ug after 48 hr by streak plate method. The note with it: MTCC 6594, 48 h, read-out: IZ.
The subject of assay [27] is Aspergillus oryzae. The assay is described as follows: Antimicrobial activity against Aspergillus oryzae MTCC 3782 at 20 ug after 48 hr by streak plate method. As to conditions: MTCC 3782, 48 h, read-out: IZ.

Four molecules from ChEMBL document CHEMBL3044727, “Syntheses, spectral, crystallographic, antimicrobial, and antioxidant studies of few Mannich bases” (2012) can be followed below.

`CC1(C)S[C@@H]2[C@H](NC(=O)Cc3ccccc3)C(=O)N2[C@H]1C(=O)O` [PENICILLIN G]: the results for the zone of inhibition at 20 µg/disc in the assay with Escherichia coli [1], in the assay with Salmonella typhi [2] and in the assay with Bacillus subtilis [6] were 24 mm, 20 mm and 25 mm, respectively. In addition, the zone of inhibition at 60 µg/disc in the assay with Escherichia coli [3] stood at 31 mm; in the assay on Bacillus subtilis [7], 26 mm; in the assay with Salmonella typhi [9], 24 mm. Also, the zone of inhibition at 40 µg/disc in the assay on Bacillus subtilis [4] came out at 26 mm; in the assay with Salmonella typhi [5] it was 24 mm; in the assay on Escherichia coli [8] it was 30 mm.

`O=C(NC(c1ccccc1)c1cc2ccccc2cc1O)NC(c1ccccc1)c1cc2ccccc2cc1O` (stereo not drawn): the zone of inhibition at 40 µg/disc in the assay with Aspergillus oryzae [10] amounted to 8 mm; with Aspergillus fumigatus [13] it was 6 mm; with Bacillus subtilis [4], 4 mm; with Salmonella typhi [5] it was 21 mm; in the assay on Escherichia coli [8], 8 mm. Besides, the Activity in [11] was 35%; in assay [14], 37%; in [16], 40%; in assay [17] it was 27%; in assay [18] it was 28%; in assay [20], “Dose-dependent effect”. In addition, the zone of inhibition at 60 µg/disc with Aspergillus fumigatus [12] amounted to 11 mm; with Escherichia coli [3], 9 mm; in the assay with Bacillus subtilis [7], 3 mm; with Aspergillus oryzae [22] it was 12 mm; in the assay on Salmonella typhi [9], 23 mm. Besides, the values for the zone of inhibition at 20 µg/disc in the assay with Salmonella typhi [2] and with Bacillus subtilis [6] were 20 mm and 4 mm, respectively. Further, the inhibition was 17% in assay [15]; “Dose-dependent effect” in assay [19]; 18.3% in assay [21]; 24% in [23]; 19% in assay [24]; 17% in [25].

With `CN[C@@H]1[C@H](O[C@H]2[C@H](O[C@H]3[C@H](O)[C@@H](O)[C@H](N=C(N)N)[C@@H](O)[C@@H]3N=C(N)N)O[C@@H](C)[C@]2(O)C=O)O[C@@H](CO)[C@H](O)[C@H]1O` [STREPTOMYCIN], the zone of inhibition at 20 µg/disc with Escherichia coli [1] came out at 31 mm; in the assay on Salmonella typhi [2] it was 36 mm; in the assay with Bacillus subtilis [6] it was 30 mm. In addition, the zone of inhibition at 60 µg/disc was determined as 45 mm in the assay on Escherichia coli [3], 41 mm with Bacillus subtilis [7] and 40 mm in the assay with Salmonella typhi [9]. Besides, the values for the zone of inhibition at 40 µg/disc with Bacillus subtilis [4], in the assay on Salmonella typhi [5] and with Escherichia coli [8] were 33 mm, 40 mm and 39 mm, respectively.

As to `C[C@@H]1[C@H](O)[C@@H](C)/C=C/C=C/C=C/C=C/C=C/C=C/C=C/[C@H](O[C@@H]2O[C@H](C)[C@@H](O)[C@H](N)[C@@H]2O)C[C@@H]2O[C@](O)(C[C@@H](O)C[C@@H](O)[C@H](O)CC[C@@H](O)C[C@@H](O)CC(=O)O[C@H]1C)C[C@H](O)[C@H]2C(=O)O` [AMPHOTERICIN B], the zone of inhibition at 40 µg/disc in the assay with Aspergillus oryzae [10] turned out to be 12 mm; in the assay on Aspergillus fumigatus [13] it was 24 mm. For the same molecule, the figures for the zone of inhibition at 60 µg/disc in the assay on Aspergillus fumigatus [12] and in the assay on Aspergillus oryzae [22] were 30 mm and 16 mm, respectively. Further, the values for the zone of inhibition at 20 µg/disc in the assay on Aspergillus fumigatus [26] and in the assay on Aspergillus oryzae [27] were 26 mm and 12 mm, respectively.

What is called inhibition is the percentage by which the read-out fell short of the control.
